The record followed here is patent publication US12673039B2, “Methods of inducing autophagy using coumarin derivatives and related compounds” (Buck Institute for Research on Aging, priority 2019, dated 2026).

One assay concerns TFEB. The assay can be described thus: qPCR of TFEB and downstream target genes in differentiated SY5Y cells. Conditions: qPCR (FIG. 6). The assay is classed as cell-based, human. From the text: Relative expression of TFEB and downstream target genes as assessed by qPCR from mRNA extracted from differentiated SY5Y cells treated with C1 (AIC106) versus vehicle-treated controls. Values represent fold induction versus controls, *p<0.01. Run in triplicate in 3 independent experiments.
In vitro drug screening studies. […] We utilized for these studies a 3000 compound natural product derivative library (Timtec, Newark, DE) in […] transfected with a sensitive TFEB promotor-Gaussian luciferase construct. […] C1 is a coumarin-related compound, part of a family of natural benzopyrones found in many edible plants.

In another assay the test system is C. elegans. The assay can be described thus: Mitophagy and mitochondrial function in C. elegans. The assay is classed as in vivo. The text has this: FIGS. 13A-13B illustrate that coumarin 106 (“C1”, “AIC106”) promotes increased indices of mitophagy. FIG. 13A) Representative images and GFP quantification of mitochondrial content at day-5 adult worms (pges-1mtGFP; bottom) of mito::GFP reporter strains (GFP tagged to mitochondrial localizing signals) treated with C1 or DMSO control. FIG. 13B) Visualizing mitochondrial fission using mito::GFP (pmyo-3mtGFP) reporter strain. Representative GFP image shown in upper panel. Representative images (lower panel) showing mitochondrial fission after 48 hrs of C1 or control treatment (63× oil). Images converted to black & white format using NIH ImageJ software for quantification of fragmented mitochondria, denoted as white puncta here.
FIGS. 14A-14B illustrate that coumarin 106 (“C1”, “AIC106”) results in increases in mitochondrial function. FIG. 14A) Basal and maximal respiration measured in live worms in the Seahorse following addition of C1 (50, 200 μM). Values are reported as oxygen consumption rate (OCR, pmol/min/mg protein)+/− FCCP addition; *p<0.05; **p<0.01. FIG. 14B) Sensitivity to treatment for with increasing concentrations of the mitochondrial uncoupler FCCP in the absence and presence of C1 (20, 50 μM; 1 hr). Values are reported as % of live worms per plate, *p<0.01 versus FCCP alone.
FIG. 20, panels A-H: AIC106 treatment improves mitochondrial health. Panel A) Changes in mitochondrial membrane potential were determined by quantifying fluorescence intensity of individual TMRM stained wild type N2 worms post-24 hours treatment with AIC106 and DMSO-control. [N=3 independent experiments (mean±SD). ****p<0.0001, by unpaired t-test]. Panel B) TMRM stained wild type N2 worms were monitored by fluorescence microscopy. Panel C) Mitophagy flux upon AIC106 treatment was determined in DLM14 young adult worms (TOMM-7 tagged to a peptide linked dual-Fluorescent GFP) by quantifying relative fold changes in ratio of monomeric-fluorescent protein (mFP) to dual-fluorescent protein (dFP) compared to DMSO-control. Panel D) Ability of AIC106 to rescue mitochondrial toxin (FCCP) sensitivity was determined as percent survival of 24 hours treated AIC106 and DMSO-control wild type N2 worms. [N=3 independent experiments (mean±SD). ****p<0.0001, by two-way ANOVA with Sidak's multiple comparisons test]. Panel E) Ability of AIC106 to rescue enhanced mitochondrial toxin (FCCP, 20 μM) sensitivity in mitophagy deficient parkin/pdr-1 mutant was determined as percent survival of 24 hours treated AIC106 and DMSO-control pdr-1(tm598) and pdr-1(tm598); hlh-30(tm1978) mutant. [N=3 independent experiments (mean±SD). *p<0.05, by two-way ANOVA with Sidak's multiple comparisons test]. Panel F) Effect of AIC106 on mitochondrial biogenesis was determined by quantifying GFP fluorescence intensity in an individual SJ4143 worm (GFP targeted in mitochondria of intestinal cells) post-72 hours of treatment with AIC106 and DMSO-control. [N=3 independent experiments (mean±SD). ****p<0.0001, by unpaired t-test]. Panel G) SJ4143 worms were monitored by fluorescence microscopy. Panel H) Effects of AIC106 on basal (B) and maximum (M) mitochondrial respiration rate were determined by quantifying oxygen consumption rate (OCR) in wild type N2 and hlh-30(tm1978) mutant strain post-24 hours of treatment with AIC106 and DMSO-control. [N=3 independent experiments (mean±SD). *p<0.05, ***p<0.001 and ****p<0.0001, by one-way ANOVA with Tukey's multiple comparisons test].
FIG. 27, panels A-C: AIC106 induces mitophagy and increases lifespan. Panel A) Relative fold change in mRNA of key mitophagy genes including dct-1, pink-1 and pdr-1 was quantified by qRT-PCR after DMSO-control and AIC106 24 hours treatment in young adult N2 and hlh-30(tm1978) mutants. [N=3 independent experiments (mean±SD). **p<0.01 and ****p<0.0001, by two-way ANOVA with Sidak's multiple comparisons test]. […]

As for `O=c1oc2c3c4c(cc2c2c1CCC2)CCCN4CCC3` [C1, 2,3,6,7,10,11-Hexahydro-1H,5H-cyclopenta(3,4)(1)benzopyrano(6,7,8-ij)quinolizin-12(9H)-one], in the assay on TFEB, the TFEB expression result is recorded as “significant dose-dependent elevations in TFEB expression” and the “downstream TFEB target genes” value is on record as “up-regulation of several downstream TFEB target genes”. For the same compound, in the assay on C. elegans (DLM14 worms (FIG. 20, panel C)), the “mitophagy flux (mFP)” value is “increased mFP expression”. Also, the mitophagy entry in the assay on C. elegans (FIG. 13) is on record as “elevated mitophagy”. Further, the mitochondrial health result in the assay on C. elegans (FIG. 14) was “improvement in mitochondrial health”. The “mRNA of mitophagy specific genes” value with C. elegans (N2, hlh-30 dependent (FIG. 27, panel A)) is “elevated mRNA abundance of key mitophagy specific genes including dct-1 and pink-1”. For the same compound, the “mitochondrial membrane potential (TMRM fluorescence)” value with C. elegans (N2 worms, 24 hours) is “significant decrease in the MMP”. Further, the “mitochondrial content (GFP)” value in the assay on C. elegans (SJ4143 worms, 72 hours) is recorded as “increased mitochondrial content”. Besides, the “maximum respiration capacity (OCR)” value in the assay with C. elegans (hlh-30 mutant worms) is recorded as “failed to show any increase in the maximum respiration capacity”. Moreover, in the assay on C. elegans (wild type N2, 24 hours), the “maximum respiration capacity (OCR)” value was “increase maximum respiration capacity”.
